# Data: patent US20120165319A1, “INHIBITORS OF INTERLEUKIN-1 BETA CONVERTING ENZYME” (VERTEX PHARMACEUTICALS INCORPORATED, priority 1995, published 2012)
# Like-named read-outs stand apart in the source and are kept apart here.
# How the values were obtained:
# ICE = target: T1, ICE (Homo sapiens, UniProt P29466); assay: Enzyme assay with UV-visible substrate (visible ICE assay, Succinyl-Tyr-Val-Ala-Asp-pNitroanilide); type: biochemical
# T1 sequence (P29466 120-297 limits assumed): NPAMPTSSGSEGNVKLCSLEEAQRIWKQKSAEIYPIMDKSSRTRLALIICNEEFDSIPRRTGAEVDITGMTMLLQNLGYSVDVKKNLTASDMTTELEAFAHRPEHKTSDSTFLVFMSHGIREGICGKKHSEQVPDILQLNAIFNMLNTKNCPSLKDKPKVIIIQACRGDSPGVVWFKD
# T1 sequence (P29466 317-404 limits assumed): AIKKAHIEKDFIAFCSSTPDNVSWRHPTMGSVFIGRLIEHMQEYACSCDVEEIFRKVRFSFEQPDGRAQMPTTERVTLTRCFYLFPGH
# Summary of the method: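 Read-out is the rate of pNA chromophore release (mOD/min, linear fit) monitored at 405-603 nm over 20 min at 37° C. Substrate was succinyl-Tyr-Val-Ala-Asp-pNitroanilide, added after a 15 min room-temperature preincubation of ICE with inhibitor.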
# [1] = tested on: IL-1β, human peripheral blood mononuclear cells (PBMC); assay: PBMC cell assay: IL-1β assay with human PBMC or enriched adherent mononuclear cells, LPS-stimulated; type: cell-based
# Summary of the method: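 Buffy-coat human PBMC at 6×10^6 cells/ml, or adherent monocytes enriched by 1 h adherence (2.5−3.0×10^5 cells/well), are given 5–6 compound dilutions bracketing the ICE Ki (final DMSO 0.1%) plus LPS at a final 5 ng/ml. They are incubated 16–18 hr at 37 °C, 5% CO2, and supernatant mature IL-1β is measured by ELISA, with duplicate cultures and duplicate ELISAs.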
# IL-1β, human whole blood = assay: Whole blood assay for IL-1β production; type: cell-based; details: read-out: Whole human blood IC50
# Summary of the method: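 Human whole blood collected on Na2EDTA was treated with serially diluted compound in saline and then stimulated with LPS at 5.0 ng/ml final, for 16-18 h at 30 °C, in duplicate or triplicate. Plasma IL-1β was measured by ELISA at 1:200 dilution.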
# [2] = Homo sapiens, PBMC, * = values obtained upon reassay
# [3] = * = values obtained upon reassay
# [4] = Homo sapiens, * = values obtained upon reassay
Compound,Ki (ICE; Table 5) [nM],"IC50 [1, 2] [nM]","IC50 (IL-1β, human whole blood; [3]) [nM]","IC50 (IL-1β, human whole blood; [4]) [nM]","IC50 [1, 3] [nM]",Ki (ICE; Table 17) [nM],"IC50 ([1]; Homo sapiens, PBMC, Table 17) [nM]","IC50 (IL-1β, human whole blood; Homo sapiens, Table 17) [nM]"
COc1ccc(C(=O)N[C@H]2CCC(=O)N3CCC[C@@H](C(=O)N[C@H](C=O)CC(=O)O)N3C2=O)cc1Cl [Compound 497],3.5,740,700,350,,,,
O=C[C@H](CC(=O)O)NC(=O)[C@@H]1CCCN2C(=O)CC[C@H](NC(=O)c3ccc(O)c(Cl)c3)C(=O)N12 [Compound 498],1.5,560,400,500,,,,
O=C[C@H](CC(=O)O)NC(=O)[C@@H]1CCCN2C(=O)CC[C@H](NC(=O)c3ccc(OCc4ccccc4)cc3)C(=O)N12 [Compound 499],3.5,1200,,9000,800,,,
O=C[C@H](CC(=O)O)NC(=O)[C@@H]1CCCN2C(=O)CC[C@H](NC(=O)C(=O)Nc3ccc(Cl)cc3)C(=O)N12 [Compound 500],,,,,,25,1800,1800
COc1cccc(OC)c1C(=O)C(=O)N[C@H]1CCC(=O)N2CCC[C@@H](C(=O)N[C@H](C=O)CC(=O)O)N2C1=O [Compound 501],,,,,,2.5,1800,1600
"O=C[C@H](CC(=O)O)NC(=O)CN1C(=O)[C@@H](NC(=O)c2ccccc2)CN(C(=O)CCc2ccccc2)c2ccccc21 [Compound 605a, (3S)-3-[(3S)-2-oxo-3-benzoylamino-5-(3-phenylpropionyl)-2,3,4,5-tetrahydro-1H-1,5-benzodiazepin-1-acetylamino-]4-oxo-butyric acid]",90,2600,,> 20000,,,,
"O=C[C@H](CC(=O)O)NC(=O)CN1C(=O)[C@@H](NC(=O)c2ccccc2)CN(C(=O)NCc2ccccc2)c2ccccc21 [Compound 605p, (3S)-3-[(3S)-2-Oxo-3-benzoylamino-5-benzylaminocarbonyl-2,3,4,5-tetrahydro-1H-1,5-benzodiazepin-1-acetylamino]-4-oxo-butyric acid]",125,3200,,> 20000,,,,
CC(=O)N1C[C@H](NC(=O)c2nccc3ccccc23)C(=O)N(CC(=O)N[C@H](C=O)CC(=O)O)c2ccccc21 [Compound 620],35,1000,,19000,,,,
CC(=O)N1C[C@H](NC(=O)c2cccc3ccccc23)C(=O)N(CC(=O)N[C@H](C=O)CC(=O)O)c2ccccc21 [Compound 621],7.2,1300,,> 20000,,,,
CC(=O)N1C[C@H](NC(=O)c2ccc3cc(O)ccc3c2)C(=O)N(CC(=O)N[C@H](C=O)CC(=O)O)c2ccccc21 [Compound 622],35,1300,,> 20000,,,,
CC(=O)Nc1ccc(C(=O)N[C@H]2CN(C(C)=O)c3ccccc3N(CC(=O)N[C@H](C=O)CC(=O)O)C2=O)cc1 [Compound 627],43,3250,,8000,,,,
CC(=O)N1C[C@H](NC(=O)c2ccc3c(c2)OCO3)C(=O)N(CC(=O)N[C@H](C=O)CC(=O)O)c2ccccc21 [Compound 628],36,2750,,> 20000,,,,
CC(=O)N1C[C@H](NC(=O)OCc2ccccc2)C(=O)N(CC(=O)N[C@H](C=O)CC(=O)O)c2ccccc21 [Compound 633],92,5750,,20000,,,,
CC(=O)N1C[C@H](NC(=O)C(=O)c2ccccc2)C(=O)N(CC(=O)N[C@H](C=O)CC(=O)O)c2ccccc21 [Compound 635],55,1900,,4000,3400,,,
"COCC(=O)N1C[C@H](NCc2ccc3ccccc3c2)C(=O)N(CC(=O)N[C@H](C=O)CC(=O)O)c2ccccc21 [Compound 640, (3S)-3-[(3S)-2-Oxo-3-(2-naphthylmethylene)amino-5-methoxyacetyl-2,3,4,5-tetrahydro-1H-1,5-benzodiazepine-1-acetylamino]-4-oxo-butyric acid]",,,,,,155,2250,3900
"COCC(=O)N1C[C@H](NC(=O)C(=O)c2ccccc2)C(=O)N(CC(=O)N[C@H](C=O)CC(=O)O)c2ccccc21 [Compound 642, (3S)-3-[(3S)-2-Oxo-3-benzoylformylamino-5-methoxyacetyl-2,3,4,5-tetrahydro-1H-1,5-benzodiazepine-1-acetylamino]-4-oxo-butyric acid]",,,,,,35,8000,2900
"O=C[C@H](CC(=O)O)NC(=O)CN1C(=O)[C@@H](NC(=O)c2cccc3ccccc23)CN(C=O)c2ccccc21 [Compound 653, (3S)-3-[(3S)-2-Oxo-3-(1-naphthoyl)amino-5-formyl-2,3,4,5-tetrahydro-1H-1,5-benzodiazepine-1-acetylamino]-4-oxo-butyric acid]",,,,,,30,2300,6000
COc1cccc(OC)c1C(=O)C(=O)N[C@H]1CN(C(=O)CO)c2ccccc2N(CC(=O)N[C@H](C=O)CC(=O)O)C1=O [Compound 678],,,,,,5,2700,2200
"O=C[C@H](CC(=O)O)NC(=O)CN1C(=O)[C@@H](NC(=O)C(=O)c2ccccc2)CN(C(=O)CO)c2ccccc21 [Compound 681, (3S)-3-[(3S)-2-Oxo-3-benzoylformylamino-5-(2-hydroxy)acetyl-2,3,4,5-tetrahydro-1H-1,5-benzodiazepine-1-acetylamino]-4-oxo-butyric acid]",,,,,,9,3000,5000
"CC(=O)OCC(=O)N1C[C@H](NC(=O)c2ccccc2)C(=O)N(CC(=O)N[C@H](C=O)CC(=O)O)c2ccccc21 [Compound 683, (3S)-3-[(3S)-2-Oxo-3-benzoylamino-5-(2-acetoxy)acetyl-2,3,4,5-tetrahydro-1H-1,5-benzodiazepine-1-acetylamino]-4-oxo-butyric acid]",,,,,,400,> 20000,> 20000
"COc1c(C)cc(C(=O)N[C@H]2CN(C(C)=O)c3ccccc3N(CC(=O)N[C@H](C=O)CC(=O)O)C2=O)cc1C [Compound 684, (3S)-3-[(3S)-2-Oxo-3-(3,5-dimethyl-4-methoxybenzoyl)amino-5-acetyl-2,3,4,5-tetrahydro-1H-1,5-benzodiazepine-1-acetylamino]-4-oxo-butyric acid]",,,,,,15,5000,2800
Nc1ccc(C(=O)N[C@H]2CN(C(=O)CO)c3ccccc3N(CC(=O)N[C@H](C=O)CC(=O)O)C2=O)cc1Cl [Compound 686],,,,,,4,4000,9000
"COCC(=O)N1C[C@H](NC(=O)c2cc(Cl)c(O)c(Cl)c2)C(=O)N(CC(=O)N[C@H](C=O)CC(=O)O)c2ccccc21 [Compound 689a, (3S)-3-[(3S)-2-Oxo-3-(3,5-dichloro-4-hydroxybenzoyl)amino-5-methoxyacetyl-2,3,4,5-tetrahydro-1H-1,5-benzodiazepine-1-acetylamino]-4-oxo-butyric acid]",,,,,,0.8,910,2500
"COCC(=O)N1C[C@H](NC(=O)c2cc(C)c(O)c(C)c2)C(=O)N(CC(=O)N[C@H](C=O)CC(=O)O)c2ccccc21 [Compound 689b, (3S)-3-[(3S)-2-Oxo-3-(3,5-dimethyl-4-hydroxybenzoyl)amino-5-methoxyacetyl-2,3,4,5-tetrahydro-1H-1,5-benzodiazepine-1-acetylamino]-4-oxo-butyric acid]",,,,,,2.2,600,2000
"O=C[C@H](CC(=O)O)NC(=O)CN1C(=O)[C@@H](NC(=O)c2ccc(O)cc2)CN(C(=O)CO)c2ccccc21 [Compound 691b, (3S)-3-[(3S)-2-Oxo-3-(4-hydroxybenzoyl)amino-5-hydroxyacetyl-2,3,4,5-tetrahydro-1H-1,5-benzodiazepine-1-acetylamino]-4-oxo-butyric acid]",,,,,,11.5,1900,1400
"COc1c(C)cc(C(=O)N[C@H]2CN(C(=O)CO)c3ccccc3N(CC(=O)N[C@H](C=O)CC(=O)O)C2=O)cc1C [Compound 694, (3S)-3-[(3S)-2-Oxo-3-(3,5-dimethyl-4-methoxybenzoyl)amino-5-hydroxyacetyl-2,3,4,5-tetrahydro-1H-1,5-benzodiazepine-1-acetylamino-]4-oxo-butyric acid]",,,,,,3,2600,2100
CC(=O)N1C[C@H](NC(=O)C(=O)c2ccc3c(c2)OCO3)C(=O)N(CC(=O)N[C@H](C=O)CC(=O)O)c2ccccc21 [Compound 702],,,,,,45,> 5000,20000
CC(=O)N1C[C@H](NC(=O)C(=O)c2c[nH]c3ccccc23)C(=O)N(CC(=O)N[C@H](C=O)CC(=O)O)c2ccccc21 [Compound 703],,,,,,5,1400,20000
COc1ccc(C(=O)C(=O)N[C@H]2CN(C(C)=O)c3ccccc3N(CC(=O)N[C@H](C=O)CC(=O)O)C2=O)cc1 [Compound 704],,,,,,30,2600,9800
